ChEMBL document CHEMBL1909046, “DrugMatrix in vitro pharmacology data”

Legend:
[1] = target: 5-hydroxytryptamine receptor 2B (Homo sapiens, UniProt P41595); assay type: cell membranes, CHO-K1, Membrane; conditions: cho-k1; note: in other assays of this panel Not Active means under 50% inhibition at 10 µM
[2] = DRUGMATRIX: Imidazoline I2, Central radioligand binding (ligand: [3H] Idazoxan); assay type: cell membranes, Rattus norvegicus, Wistar, Cerebral cortex, Membrane; conditions: Not Active = under 50% inhibition at 10 µM
[3] = DRUGMATRIX: Calcium Channel Type L, Dihydropyridine radioligand binding (ligand: [3H] Nitrendipine); assay type: cell membranes, Rattus norvegicus, Wistar, Cerebral cortex, Membrane; conditions: Not Active = under 50% inhibition at 10 µM
[4] = DRUGMATRIX: ATPase, Na+/K+ enzyme inhibition (substrate: ATP); assay type: tissue-based, Sus scrofa, Heart; conditions: Not Active = under 50% inhibition at 10 µM
[5] = target: T1, Cholecystokinin receptor type A (Homo sapiens, UniProt P32238); assay type: cell membranes, Membrane; conditions: 1321-n1; note: in other assays of this panel Not Active means under 50% inhibition at 10 µM
T1 sequence (P32238 whole entry): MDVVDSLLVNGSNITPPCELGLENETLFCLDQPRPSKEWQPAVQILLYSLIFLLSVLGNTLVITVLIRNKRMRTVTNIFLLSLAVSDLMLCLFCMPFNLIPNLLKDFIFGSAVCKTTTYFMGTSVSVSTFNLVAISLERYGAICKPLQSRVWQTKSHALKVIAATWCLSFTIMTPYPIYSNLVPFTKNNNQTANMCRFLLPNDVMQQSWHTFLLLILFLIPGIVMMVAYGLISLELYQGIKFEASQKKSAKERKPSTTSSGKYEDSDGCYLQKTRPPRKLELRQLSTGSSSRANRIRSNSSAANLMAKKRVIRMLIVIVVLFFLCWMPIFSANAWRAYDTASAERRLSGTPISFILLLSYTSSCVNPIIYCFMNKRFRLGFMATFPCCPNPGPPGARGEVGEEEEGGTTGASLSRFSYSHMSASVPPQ

[6] = target: Beta-1 adrenergic receptor (Homo sapiens, UniProt P08588); assay: DRUGMATRIX: Adrenergic beta1 radioligand binding (ligand: [125I] Cyanopindolol); assay type: cell membranes, CHO-K1, Membrane; conditions: Not Active = under 50% inhibition at 10 µM
Chain of Beta-1 adrenergic receptor (P08588 whole entry): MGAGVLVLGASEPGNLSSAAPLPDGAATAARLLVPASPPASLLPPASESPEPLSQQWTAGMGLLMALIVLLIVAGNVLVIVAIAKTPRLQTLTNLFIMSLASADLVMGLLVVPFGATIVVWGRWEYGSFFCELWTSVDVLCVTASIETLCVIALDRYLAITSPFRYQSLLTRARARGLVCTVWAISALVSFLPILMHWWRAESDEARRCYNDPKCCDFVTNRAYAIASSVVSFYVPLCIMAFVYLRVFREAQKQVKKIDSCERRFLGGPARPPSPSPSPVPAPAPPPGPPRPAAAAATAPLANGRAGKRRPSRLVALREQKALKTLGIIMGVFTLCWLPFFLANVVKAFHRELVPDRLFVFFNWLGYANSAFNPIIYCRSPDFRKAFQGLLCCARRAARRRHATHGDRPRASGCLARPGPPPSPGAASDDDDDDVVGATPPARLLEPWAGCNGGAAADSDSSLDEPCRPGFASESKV

[7] = target: Mitogen-activated protein kinase 1 (Homo sapiens, UniProt P28482); assay: DRUGMATRIX: Protein Serine/Threonine Kinase, ERK2 enzyme inhibition (substrate: Myelin Basic Protein); design: species or system Escherichia coli; conditions: Not Active = under 50% inhibition at 10 µM
Chain of Mitogen-activated protein kinase 1 (P28482 whole entry): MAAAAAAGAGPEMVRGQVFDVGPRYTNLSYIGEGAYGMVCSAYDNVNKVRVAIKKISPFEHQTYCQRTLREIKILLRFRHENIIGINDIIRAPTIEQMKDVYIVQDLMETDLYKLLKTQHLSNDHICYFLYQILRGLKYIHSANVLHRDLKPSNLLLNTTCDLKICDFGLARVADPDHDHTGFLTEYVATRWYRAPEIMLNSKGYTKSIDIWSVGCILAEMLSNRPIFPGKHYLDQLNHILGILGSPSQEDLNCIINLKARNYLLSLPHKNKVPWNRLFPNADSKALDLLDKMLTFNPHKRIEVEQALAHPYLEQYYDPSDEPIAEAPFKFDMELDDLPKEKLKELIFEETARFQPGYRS

[8] = target: Kappa-type opioid receptor (Homo sapiens, UniProt P41145); assay: DRUGMATRIX: Opiate kappa (OP2, KOP) radioligand binding (ligand: [3H] Diprenorphine); assay type: cell membranes, HEK293, Membrane; conditions: hek293; Not Active = under 50% inhibition at 10 µM
Chain of Kappa-type opioid receptor (P41145 whole entry): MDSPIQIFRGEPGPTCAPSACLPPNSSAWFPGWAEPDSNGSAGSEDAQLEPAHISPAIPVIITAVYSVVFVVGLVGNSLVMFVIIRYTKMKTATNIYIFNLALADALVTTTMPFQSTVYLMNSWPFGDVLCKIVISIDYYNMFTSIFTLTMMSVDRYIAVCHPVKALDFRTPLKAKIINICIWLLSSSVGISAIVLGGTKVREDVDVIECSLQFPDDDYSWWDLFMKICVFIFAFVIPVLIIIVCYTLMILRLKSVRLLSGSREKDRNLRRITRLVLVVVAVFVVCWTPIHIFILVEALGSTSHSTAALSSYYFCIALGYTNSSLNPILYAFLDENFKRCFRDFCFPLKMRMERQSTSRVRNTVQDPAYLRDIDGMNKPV

Substance-K receptor = target: T2, Substance-K receptor (Homo sapiens, UniProt P21452); assay type: cell membranes, CHO, Membrane; conditions: for Ki: read-out: Ki; for all read-outs here: in other assays of this panel Not Active means under 50% inhibition at 10 µM
T2 sequence (P21452 whole entry): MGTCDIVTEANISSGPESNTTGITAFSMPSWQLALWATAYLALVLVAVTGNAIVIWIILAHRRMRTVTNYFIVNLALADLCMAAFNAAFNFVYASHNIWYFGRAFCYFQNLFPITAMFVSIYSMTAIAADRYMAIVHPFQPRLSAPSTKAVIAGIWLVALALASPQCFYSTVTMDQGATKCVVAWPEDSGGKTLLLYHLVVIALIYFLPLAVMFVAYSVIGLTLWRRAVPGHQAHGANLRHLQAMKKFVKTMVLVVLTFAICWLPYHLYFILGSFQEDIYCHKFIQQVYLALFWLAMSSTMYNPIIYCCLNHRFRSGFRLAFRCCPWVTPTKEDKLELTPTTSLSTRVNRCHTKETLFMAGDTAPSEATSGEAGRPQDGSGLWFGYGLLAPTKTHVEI

[9] = target: Protein phosphatase 3 catalytic subunit alpha (Homo sapiens, UniProt Q08209); design: species or system Escherichia coli;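 note: inhibition of calcineurin (PP2B) enzyme activity, measured with DiFMUP as the substrate; in other assays of this panel Not Active means under 50% inhibition at 10 µM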

Chain of 5-hydroxytryptamine receptor 2B (P41595 whole entry): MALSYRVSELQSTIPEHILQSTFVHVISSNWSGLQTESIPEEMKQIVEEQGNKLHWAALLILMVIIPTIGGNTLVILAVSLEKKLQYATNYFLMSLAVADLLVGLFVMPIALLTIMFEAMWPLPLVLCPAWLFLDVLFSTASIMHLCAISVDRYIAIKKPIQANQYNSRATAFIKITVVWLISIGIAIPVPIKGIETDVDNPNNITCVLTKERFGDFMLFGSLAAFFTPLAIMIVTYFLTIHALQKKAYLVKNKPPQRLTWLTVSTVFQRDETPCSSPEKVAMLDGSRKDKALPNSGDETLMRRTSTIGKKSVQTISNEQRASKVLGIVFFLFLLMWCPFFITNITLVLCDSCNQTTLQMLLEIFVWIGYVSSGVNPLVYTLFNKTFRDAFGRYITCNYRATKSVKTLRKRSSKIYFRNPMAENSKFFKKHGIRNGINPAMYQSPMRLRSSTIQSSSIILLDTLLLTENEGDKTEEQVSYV

Row | Compound | IC50 [1] | IC50 [2] | Ki [2] | IC50 [3] | Ki [3] | IC50 [4] | Ki [4] | IC50 [5] | IC50 ([6]; cho-k1) | IC50 [7] | IC50 [8] | IC50 (Substance-K receptor; cho) | IC50 [9] | IC50 ([6]; read-out: IC50) | Ki ([6]; read-out: Ki) | IC50 (Substance-K receptor; read-out: IC50) | Ki (Substance-K receptor) | IC50 ([3]; read-out: IC50) | Ki ([3]; read-out: Ki)
1 | CC1=C(CC(=O)O)c2cc(F)ccc2/C1=C\c1ccc([S+](C)[O-])cc1 (stereo not given) | Not Active | Not Active | Not Active | Not Active | Not Active | Not Active | Not Active | Not Active | Not Active | Not Active | Not Active | Not Active | Not Active | – | – | – | – | – | –
2 | N[C@H](CSC(=S)NCc1ccccc1)C(=O)O | Not Active | Not Active | Not Active | Not Active | Not Active | Not Active | Not Active | Not Active | Not Active | Not Active | Not Active | Not Active | Not Active | – | – | – | – | – | –
3 | CC(=O)N[C@@H]1[C@H](Oc2c3cc4cc2Oc2ccc(cc2Cl)[C@@H](O[C@@H]2O[C@@H](CO)[C@@H](O)[C@H](O)[C@@H]2NC(C)=O)[C@@H]2NC(=O)[C@H](NC(=O)[C@@H]4NC(=O)[C@H]4NC(=O)[C@@H](Cc5ccc(c(Cl)c5)O3)NC(=O)[C@H](N)c3ccc(O)c(c3)Oc3cc(O)cc4c3)c3ccc(O)c(c3)-c3c(O[C@H]4O[C@H](CO)[C@@H](O)[C@@H](O)[C@@H]4O)cc(O)cc3[C@@H](C(=O)O)NC2=O)O[C@@H](CO)[C@@H](O)[C@@H]1O | Not Active | Not Active | Not Active | Not Active | Not Active | Not Active | Not Active | Not Active | Not Active | Not Active | Not Active | Not Active | Not Active | – | – | – | – | – | –
4 | Clc1ccc2c(c1)C(N1CCNCC1)=Nc1ccccc1O2 [AMOXAPINE] | – | – | – | – | – | – | – | Not Active | Not Active | Not Active | Not Active | Not Active | Not Active | – | – | – | – | – | –
5 | COc1cc2c(c(OC)c1OC)-c1ccc(OC)c(=O)cc1[C@@H](NC(C)=O)CC2 [COLCHICINE] | Not Active | – | – | – | – | – | – | Not Active | Not Active | Not Active | – | Not Active | Not Active | – | – | – | – | – | –
6 | CN1CCC(=C2c3ccccc3C=Cc3ccccc32)CC1 [CYPROHEPTADINE] | – | – | – | – | – | – | – | Not Active | Not Active | Not Active | Not Active | Not Active | Not Active | – | – | – | – | – | –
7 | CC/C(=C(/CC)c1ccc(O)cc1)c1ccc(O)cc1 [DIETHYLSTILBESTROL] | – | – | – | – | – | – | – | Not Active | – | Not Active | – | – | Not Active | 22.1 µM | 12.8 µM | 9.55 µM | 3.18 µM | – | –
8 | CC(=O)N1CCN(c2ccc(OCC3COC(Cn4ccnc4)(c4ccc(Cl)cc4Cl)O3)cc2)CC1 (stereo not given) [KETOCONAZOLE] | Not Active | Not Active | Not Active | Not Active | Not Active | Not Active | Not Active | Not Active | Not Active | Not Active | Not Active | – | Not Active | – | – | 17.2 µM | 5.75 µM | – | –
9 | C=CCN1CC[C@]23c4c5ccc(O)c4O[C@H]2C(=O)CC[C@@]3(O)[C@H]1C5 [NALOXONE] | Not Active | – | – | – | – | – | – | Not Active | Not Active | Not Active | – | Not Active | Not Active | – | – | – | – | – | –
10 | COCCOC(=O)C1=C(C)NC(C)=C(C(=O)OC(C)C)C1c1cccc([N+](=O)[O-])c1 (stereo not given) [NIMODIPINE] | Not Active | Not Active | Not Active | – | – | Not Active | Not Active | Not Active | Not Active | Not Active | Not Active | Not Active | Not Active | – | – | – | – | 0.000242 µM | 0.000156 µM
11 | CC(C)NCC(O)COc1cccc2ccccc12 (stereo not given) [PROPRANOLOL] | – | – | – | – | – | – | – | Not Active | – | Not Active | Not Active | Not Active | Not Active | – | – | – | – | – | –
12 | COCCCOc1ccnc(C[S+]([O-])c2nc3ccccc3[nH]2)c1C (stereo not given) [RABEPRAZOLE] | Not Active | Not Active | Not Active | Not Active | Not Active | Not Active | Not Active | Not Active | Not Active | Not Active | Not Active | Not Active | Not Active | – | – | – | – | – | –
13 | O=C(c1ccc(OCCN2CCCCC2)cc1)c1c(-c2ccc(O)cc2)sc2cc(O)ccc12 [RALOXIFENE] | – | Not Active | Not Active | – | – | Not Active | Not Active | Not Active | Not Active | Not Active | – | – | Not Active | – | – | 3.99 µM | 1.33 µM | 0.388 µM | 0.249 µM
14 | CNC(=C[N+](=O)[O-])NCCSCc1ccc(CN(C)C)o1 [RANITIDINE] | Not Active | Not Active | Not Active | Not Active | Not Active | Not Active | Not Active | Not Active | Not Active | Not Active | Not Active | Not Active | Not Active | – | – | – | – | – | –
15 | CO[C@H]1/C=C/O[C@@]2(C)Oc3c(C)c(O)c4c(c3C2=O)C2=NC3(CCN(CC(C)C)CC3)NC2=C(NC(=O)/C(C)=C\C=C\[C@H](C)[C@H](O)[C@@H](C)[C@@H](O)[C@@H](C)[C@H](OC(C)=O)[C@@H]1C)C4=O [RIFABUTIN] | Not Active | Not Active | Not Active | Not Active | Not Active | Not Active | Not Active | Not Active | Not Active | Not Active | Not Active | Not Active | Not Active | – | – | – | – | – | –
16 | CC(C)c1nc(CN(C)C(=O)N[C@H](C(=O)N[C@@H](Cc2ccccc2)C[C@H](O)[C@H](Cc2ccccc2)NC(=O)OCc2cncs2)C(C)C)cs1 [RITONAVIR] | Not Active | Not Active | Not Active | Not Active | Not Active | Not Active | Not Active | Not Active | Not Active | Not Active | – | – | Not Active | – | – | – | – | – | –
17 | CC(C)CC(N(C)C)C1(c2ccc(Cl)cc2)CCC1 (stereo not given) [SIBUTRAMINE] | Not Active | Not Active | Not Active | Not Active | Not Active | Not Active | Not Active | Not Active | Not Active | Not Active | Not Active | Not Active | Not Active | – | – | – | – | – | –
18 | [H]/N=C(/N)N[C@H]1[C@H](O)[C@@H](O)[C@H](O[C@@H]2O[C@@H](C)[C@](O)(C=O)[C@H]2O[C@@H]2O[C@@H](CO)[C@H](O)[C@@H](O)[C@@H]2NC)[C@@H](N/C(N)=N\[H])[C@@H]1O [STREPTOMYCIN] | Not Active | Not Active | Not Active | Not Active | Not Active | Not Active | Not Active | Not Active | Not Active | Not Active | Not Active | Not Active | Not Active | – | – | – | – | – | –
19 | CC(C)(C)c1ccc(C(O)CCCN2CCC(C(O)(c3ccccc3)c3ccccc3)CC2)cc1 (stereo not given) [TERFENADINE] | – | Not Active | Not Active | – | – | Not Active | Not Active | Not Active | Not Active | Not Active | Not Active | – | Not Active | – | – | 2.68 µM | 0.892 µM | 0.779 µM | 0.501 µM
20 | CC(=O)CC(c1ccccc1)c1c(O)c2ccccc2oc1=O (stereo not given) [WARFARIN] | Not Active | Not Active | Not Active | Not Active | Not Active | Not Active | Not Active | Not Active | Not Active | Not Active | – | Not Active | Not Active | – | – | – | – | – | –
